biological target: T1, human somatostatin receptor subtype 2 (Homo sapiens, UniProt P30874); assay: cAMP assay (functional assay for SSTR2 agonists); format: cell-based; conditions: CHO cells expressing human SSTR2; intracellular cAMP with forskolin, HTRF; read-out: SSTR2a EC50
T1 construct: expressed in transfected cells; host or cells: CHO (Chinese hamster ovary) cells, G-418 selected
Source text: Functional Assay for SSTR2 Agonists
General overview: All five SSTR subtypes are Gi coupled G-protein coupled receptors (GPCRs) that lead to decreases in intracellular cyclic AMP (cAMP) when activated by an agonist. Therefore, measurement of intracellular cAMP levels can be used to assess whether compounds of the invention are agonists of SSTR subtypes (John Kelly, Troy Stevens, W. Joseph Thompson, and Roland Seifert, Current Protocols in Pharmacology, 2005, 2.2.1-2.2). One example of an intracellular cAMP assay is described below.
One day prior to the assay, 40,000 Chinese hamster ovary (CHO) cells expressing the human somatostatin receptor subtype 2 are plated in each well of a 96-well tissue culture plate in DM-MEM growth media (Gibco) with the following additives: 10% fetal bovine serum (Gibco), 100 U/mL penicillin (Gibco), 100 ug/mL streptomycin (Gibco), 10 mM HEPES (Gibco), 1.2 mM sodium hydroxide, 0.5 mg/mL G-418 (Gibco)). The cells are cultured overnight at 37° C., 5% CO2 and 95% humidity. On the day of the assay, the media is aspirated and the cells are washed with 1× Dulbecco's phosphate buffered saline (Gibco). Next, 5 μL of assay buffer (1× Earle's Balanced Salt Solution (Gibco), 5 mM MgCl2, 10 mM HEPES, 0.1% bovine serum albumin, 0.2 mM 3-Isobutyl-1-methylxanthine (IBMX, Biomol Research Labs)) and forskolin is added. Various dilutions of the compounds of the invention are prepared in assay buffer and 5 μL of the dilutions are added to the cultured cells and incubated for 15 minutes at 37° C. […] 10 μL of lysis buffer (HRTF cAMP kit, Cisbio) containing cAMP detection and visualization antibodies are added and the assay is allowed incubate for 1-24 hours at room temperature. The intracellular cAMP concentrations are then measured using a commercially available detection kit (for example, the cAMP HTRF kit, Cisbio). The measured intracellular cAMP concentrations are plotted vs. the concentration of the compounds of the invention and the EC50 of the compounds are calculated using standard methods.

T1 sequence (P30874 whole entry): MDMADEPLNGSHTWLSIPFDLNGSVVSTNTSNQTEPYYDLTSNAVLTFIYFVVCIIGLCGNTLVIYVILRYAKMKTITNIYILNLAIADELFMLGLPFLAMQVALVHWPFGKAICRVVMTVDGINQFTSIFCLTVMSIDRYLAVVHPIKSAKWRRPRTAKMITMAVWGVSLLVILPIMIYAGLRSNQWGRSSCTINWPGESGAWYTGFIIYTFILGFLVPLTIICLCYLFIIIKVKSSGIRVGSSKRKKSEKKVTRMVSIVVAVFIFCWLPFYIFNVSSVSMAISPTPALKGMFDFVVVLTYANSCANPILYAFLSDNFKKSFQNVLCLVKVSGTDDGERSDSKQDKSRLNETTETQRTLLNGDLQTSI

| EC50 [nM] | SMILES |
| --- | --- |
| < 100 | Cc1cc(F)cc(N2C=Nc3cc(C)c(-c4cccc(O)c4)cc3C2C(=O)N(C)C[C@@H]2CCCN2)c1 (stereo partly drawn) [Compound 1-25, 3-(3-fluoro-5-methylphenyl)-6-(3-hydroxyphenyl)-N,7-dimethyl-N-[(2S)-pyrrolidin-2-ylmethyl]-3,4-dihydroquinazoline-4-carboxamide] |
| < 100 | Cc1cc(F)cc(N2C=Nc3cc(C)c(-c4cc(O)ccc4Cl)cc3C2C(=O)N(C)C[C@@H]2CCCN2)c1 (stereo partly drawn) [Compound 1-26, 6-(2-chloro-5-hydroxyphenyl)-3-(3-fluoro-5-methylphenyl)-N,7-dimethyl-N-[(2S)-pyrrolidin-2-ylmethyl]-3,4-dihydroquinazoline-4-carboxamide] |
| < 100 | CC1=Nc2ccc(-c3cc(O)ccc3Cl)cc2C(C(=O)N(C)C[C@@H]2CCCN2)N1c1cc(C)cc(Cl)c1 (stereo partly drawn) [Compound 1-27, 6-(2-chloro-5-hydroxyphenyl)-3-(3-chloro-5-methylphenyl)-N,2-dimethyl-N-[(2S)-pyrrolidin-2-ylmethyl]-3,4-dihydroquinazoline-4-carboxamide] |
| < 100 | CC1=Nc2ccc(-c3cc(O)ccc3Cl)cc2C(C(=O)NC[C@@H]2CCCN2)N1c1cc(C)cc(Cl)c1 (stereo partly drawn) [Compound 1-28, 6-(2-chloro-5-hydroxyphenyl)-3-(3-chloro-5-methylphenyl)-2-methyl-N-[(2S)-pyrrolidin-2-ylmethyl]-3,4-dihydroquinazoline-4-carboxamide] |
| < 100 | Cc1cc(Cl)cc(N2C=Nc3ccc(-c4cccc(O)c4Cl)cc3C2C(=O)N(C)C[C@@H]2CCCN2)c1 (stereo partly drawn) [Compound 1-29, 6-(2-chloro-3-hydroxyphenyl)-3-(3-chloro-5-methylphenyl)-N-methyl-N-[(2S)-pyrrolidin-2-ylmethyl]-3,4-dihydroquinazoline-4-carboxamide] |
| < 100 | Cc1cc(Cl)cc(N2C=Nc3ccc(-c4cc(O)ccc4Cl)cc3C2C(=O)N(C)C[C@@H]2CCCN2)c1 (stereo partly drawn) [Compound 1-30, 6-(2-chloro-5-hydroxyphenyl)-3-(3-chloro-5-methylphenyl)-N-methyl-N-[(2S)-pyrrolidin-2-ylmethyl]-3,4-dihydroquinazoline-4-carboxamide] |
| < 100 | CCN(C[C@@H]1CCCN1)C(=O)C1c2cc(-c3cccc(O)c3)c(C)cc2N=CN1c1cc(C)cc(Cl)c1 (stereo partly drawn) [Compound 1-31, 3-(3-chloro-5-methylphenyl)-N-ethyl-6-(3-hydroxyphenyl)-7-methyl-N-[(2S)-pyrrolidin-2-ylmethyl]-3,4-dihydroquinazoline-4-carboxamide] |
| < 100 | Cc1cc(Cl)cc(N2C=Nc3cc(C)c(-c4ccccc4)cc3C2C(=O)N(C)C[C@@H]2CCCN2)c1 (stereo partly drawn) [Compound 1-32, 3-(3-chloro-5-methylphenyl)-N,7-dimethyl-6-phenyl-N-[(2S)-pyrrolidin-2-ylmethyl]-3,4-dihydroquinazoline-4-carboxamide] |
| < 100 | Cc1cc(Cl)cc(N2C=Nc3cc(C)c(-c4cccc(C#N)c4)cc3C2C(=O)N(C)C[C@@H]2CCCN2)c1 (stereo partly drawn) [Compound 1-33, 3-(3-chloro-5-methylphenyl)-6-(3-cyanophenyl)-N,7-dimethyl-N-[(2S)-pyrrolidin-2-ylmethyl]-3,4-dihydroquinazoline-4-carboxamide] |
| < 100 | Cc1cc(Cl)cc(N2C=Nc3cc(C)c(-c4cc(F)ccc4Cl)cc3C2C(=O)N(C)C[C@@H]2CCCN2)c1 (stereo partly drawn) [Compound 1-35, 6-(2-chloro-5-fluorophenyl)-3-(3-chloro-5-methylphenyl)-N,7-dimethyl-N-[(2S)-pyrrolidin-2-ylmethyl]-3,4-dihydroquinazoline-4-carboxamide] |
| < 100 | Cc1cc(Cl)cc(N2C=Nc3cc(C)c(-c4ccccc4Cl)cc3C2C(=O)N(C)C[C@@H]2CCCN2)c1 (stereo partly drawn) [Compound 1-36, 3-(3-chloro-5-methylphenyl)-6-(2-chlorophenyl)-N,7-dimethyl-N-[(2S)-pyrrolidin-2-ylmethyl]-3,4-dihydroquinazoline-4-carboxamide] |
| < 100 | Cc1cc(Cl)cc(N2C=Nc3cc(C)c(-c4cc(C#N)ccc4Cl)cc3C2C(=O)N(C)C[C@@H]2CCCN2)c1 (stereo partly drawn) [Compound 1-37, 6-(2-chloro-5-cyanophenyl)-3-(3-chloro-5-methylphenyl)-N,7-dimethyl-N-[(2S)-pyrrolidin-2-ylmethyl]-3,4-dihydroquinazoline-4-carboxamide] |
| < 100 | Cc1cc(Cl)cc(N2C=Nc3cc(C)c(-c4cc(F)cc(C#N)c4)cc3C2C(=O)N(C)C[C@@H]2CCCN2)c1 (stereo partly drawn) [Compound 1-38, 3-(3-chloro-5-methylphenyl)-6-(3-cyano-5-fluorophenyl)-N,7-dimethyl-N-[(2S)-pyrrolidin-2-ylmethyl]-3,4-dihydroquinazoline-4-carboxamide] |
| < 100 | Cc1cc(C#N)cc(-c2cc3c(cc2C)N=CN(c2cc(C)cc(Cl)c2)C3C(=O)N(C)C[C@@H]2CCCN2)c1 (stereo partly drawn) [Compound 1-39, 3-(3-chloro-5-methylphenyl)-6-(3-cyano-5-methylphenyl)-N,7-dimethyl-N-[(2S)-pyrrolidin-2-ylmethyl]-3,4-dihydroquinazoline-4-carboxamide] |
| < 100 | Cc1cc(Cl)cc(N2C=Nc3cc(C)c(-c4cc(F)cc(F)c4)cc3C2C(=O)N(C)C[C@@H]2CCCN2)c1 (stereo partly drawn) [Compound 1-40, 3-(3-chloro-5-methylphenyl)-6-(3,5-difluorophenyl)-N,7-dimethyl-N-[(2S)-pyrrolidin-2-ylmethyl]-3,4-dihydroquinazoline-4-carboxamide] |
| < 100 | Cc1cc(Cl)cc(N2C=Nc3cc(C)c(-c4cccc(C#N)c4F)cc3C2C(=O)N(C)C[C@@H]2CCCN2)c1 (stereo partly drawn) [Compound 1-41, 3-(3-chloro-5-methylphenyl)-6-(3-cyano-2-fluorophenyl)-N,7-dimethyl-N-[(2S)-pyrrolidin-2-ylmethyl]-3,4-dihydroquinazoline-4-carboxamide] |
| < 100 | Cc1cc(Cl)cc(N2C=Nc3cc(C)c(-c4cc(C#N)cc(C(F)(F)F)c4)cc3C2C(=O)N(C)C[C@@H]2CCCN2)c1 (stereo partly drawn) [Compound 1-42, 3-(3-chloro-5-methylphenyl)-6-[3-cyano-5-(trifluoromethyl)phenyl]-N,7-dimethyl-N-[(2S)-pyrrolidin-2-ylmethyl]-3,4-dihydroquinazoline-4-carboxamide] |
| < 100 | Cc1cc(Cl)cc(N2C=Nc3cc(C)c(-c4cccc(C(F)(F)F)c4)cc3C2C(=O)N(C)C[C@@H]2CCCN2)c1 (stereo partly drawn) [Compound 1-43, 3-(3-chloro-5-methylphenyl)-N,7-dimethyl-N-[(2S)-pyrrolidin-2-ylmethyl]-6-[3-(trifluoromethyl)phenyl]-3,4-dihydroquinazoline-4-carboxamide] |
| < 100 | Cc1cc(Cl)cc(N2C=Nc3cc(C)c(-c4cccc(C#N)c4C)cc3C2C(=O)N(C)C[C@@H]2CCCN2)c1 (stereo partly drawn) [Compound 1-44, 3-(3-chloro-5-methylphenyl)-6-(3-cyano-2-methylphenyl)-N,7-dimethyl-N-[(2S)-pyrrolidin-2-ylmethyl]-3,4-dihydroquinazoline-4-carboxamide] |
| < 100 | Cc1cc(Cl)cc(N2C=Nc3ccc(-c4cccc(O)c4)cc3C2C(=O)N(C)C[C@@H]2CCCN2)c1 (stereo partly drawn) [Compound 1-45, 3-(3-chloro-5-methylphenyl)-6-(3-hydroxyphenyl)-N-methyl-N-[(2S)-pyrrolidin-2-ylmethyl]-3,4-dihydroquinazoline-4-carboxamide] |
